In one assay the target is T1, PDGFRβ (Homo sapiens, UniProt P09619).
T1 construct: purchased Invitrogen
The assay is described as follows: PDGFRβ Kinase Assay. Type of assay: biochemical. The following applies: read-out: PDGFRb Enzyme Assay.

In another assay the test system is M-NFS-60 cells. Description: M-NFS-60 Cell Proliferation Assay (resazurin). To be noted: 67 h + 5 h resazurin. Type of assay: cell-based. On the procedure: Cells were allowed to expand until reaching saturation at which point they were subcultured or harvested for assay use.
M-NFS-60 Cell Proliferation Assay
A serial dilution of test compound was dispensed into a 384-well black clear bottom plate (Corning, Corning, N.Y.). Two thousand five hundred cells were added per well in 50 μL complete growth medium. Plates were incubated for 67 hours at 37 degrees Celsius, 5% CO2, and 95% humidity. […] Data was analyzed using Prism software (Graphpad, San Diego, Calif.) to calculate IC50 values.
(In general: The colour change of resazurin is a common sign of viable cells or microbes.)

Assay [1] concerns the target T2, c-MET kinase (Seq. ID no. 2) (Homo sapiens, UniProt P08581).
T2 construct: purchased Invitrogen PV3143
Description: c-MET Kinase Assay (ADP production, pyruvate kinase/lactate dehydrogenase coupled). Type of assay: biochemical. The following applies: read-out: cMET Enzyme Assay.

For assay [2], the target named is KDR kinase (Seq ID No. 3) (Homo sapiens, UniProt P35968, DEL940-989/E990V). The assay is described as follows: KDR Kinase Assay (assays K1, K2, K3). Type of assay: biochemical. To be noted: assay variant K1, K2 or K3 not stated; read-out: KDR Enzyme Assay.
The next assay deals with T3, PDGFRα kinase (Homo sapiens, UniProt P16234).
T3 construct: purchased Invitrogen
The assay is described as follows: PDGFRα Kinase Assay. Type of assay: biochemical. To be noted: read-out: PDGFRa Enzyme Assay.

The target of a further assay is T4, FMS kinase (Homo sapiens, UniProt P07333).
T4 construct: purchased Invitrogen or Millipore
Description: FMS Kinase Assay. Type of assay: biochemical. To be noted: read-out: FMS Enzyme Assay.

Assay [3] has as its target T5, c-KIT kinase (Seq. ID no. 1) (Homo sapiens, UniProt P10721).
T5 construct: purchased ProQinase
The assay is described as follows: c-KIT kinase Assay (ADP production, pyruvate kinase/lactate dehydrogenase coupled). Type of assay: biochemical. The following applies: read-out: cKIT Enzyme Assay.

For another assay, the target named is T6, Mo-7e pKIT (Homo sapiens, UniProt P10721).
T6 construct: endogenous in cells; host or cells: Mo-7e
The assay is described as follows: Mo-7e pKIT cellular assay. Type of assay: cell-based. To be noted: Mo-7e cells.

A further assay deals with EBC-1 cells. Description: EBC-1 Cell Proliferation Assay (resazurin). Type of assay: cell-based. To be noted: Homo sapiens, 67 h + 5 h resazurin, read-out: EBC1 Cell Proliferation. On the procedure:
EBC-1 cells (catalog #JCRB0820) were obtained from the Japan Health Science Research Resources Bank, Osaka, Japan. Briefly, cells were grown in DMEM supplemented with 10% characterized fetal bovine serum (Invitrogen, Carlsbad, Calif.) at 37 degrees Celsius, 5% CO2, 95% humidity. Cells were allowed to expand until reaching 70-95% confluency at which point they were subcultured or harvested for assay use.
EBC-1 Cell Proliferation Assay
A serial dilution of test compound was dispensed into a 96-well black clear bottom plate (Corning, Corning, N.Y.). For each cell line, five thousand cells were added per well in 200 μL complete growth medium. Plates were incubated for 67 hours at 37 degrees Celsius, 5% CO2, 95% humidity. […] Data was analyzed using Prism software (Graphpad, San Diego, Calif.) to calculate IC50 values.

Our source for the IC50 values is US8486951B2 (Deciphera Pharmaceuticals, LLC, priority 2008, dated 2013).

Bounds are passed on as bounds.

T1 sequence (P09619 33-1106): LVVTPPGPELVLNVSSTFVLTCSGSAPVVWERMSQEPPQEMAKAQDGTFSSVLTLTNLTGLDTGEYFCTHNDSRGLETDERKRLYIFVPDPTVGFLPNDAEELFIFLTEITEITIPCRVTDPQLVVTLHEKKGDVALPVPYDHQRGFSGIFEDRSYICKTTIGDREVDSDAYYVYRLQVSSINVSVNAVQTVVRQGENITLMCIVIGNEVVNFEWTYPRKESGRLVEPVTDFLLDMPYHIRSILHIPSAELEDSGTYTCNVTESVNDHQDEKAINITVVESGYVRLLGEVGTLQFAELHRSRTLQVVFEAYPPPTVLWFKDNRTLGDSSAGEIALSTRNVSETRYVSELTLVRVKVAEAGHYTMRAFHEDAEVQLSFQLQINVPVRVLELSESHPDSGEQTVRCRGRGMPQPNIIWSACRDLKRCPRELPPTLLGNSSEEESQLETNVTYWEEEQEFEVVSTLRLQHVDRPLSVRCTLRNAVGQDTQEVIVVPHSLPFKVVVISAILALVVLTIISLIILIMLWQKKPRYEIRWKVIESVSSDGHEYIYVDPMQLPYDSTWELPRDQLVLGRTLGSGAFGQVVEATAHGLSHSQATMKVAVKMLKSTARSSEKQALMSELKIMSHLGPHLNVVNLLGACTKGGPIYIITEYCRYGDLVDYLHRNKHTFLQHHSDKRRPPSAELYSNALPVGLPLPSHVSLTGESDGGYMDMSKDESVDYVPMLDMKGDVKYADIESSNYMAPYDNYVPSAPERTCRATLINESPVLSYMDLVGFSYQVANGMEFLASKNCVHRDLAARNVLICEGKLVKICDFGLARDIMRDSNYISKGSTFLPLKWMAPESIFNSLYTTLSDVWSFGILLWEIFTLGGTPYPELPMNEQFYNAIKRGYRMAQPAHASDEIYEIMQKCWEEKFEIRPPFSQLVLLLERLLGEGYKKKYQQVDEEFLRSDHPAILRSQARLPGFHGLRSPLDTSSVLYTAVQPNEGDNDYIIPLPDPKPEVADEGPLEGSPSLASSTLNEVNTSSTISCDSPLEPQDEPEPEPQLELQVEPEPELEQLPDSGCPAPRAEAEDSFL
T2 sequence (P08581 with tags, fused parts or gaps): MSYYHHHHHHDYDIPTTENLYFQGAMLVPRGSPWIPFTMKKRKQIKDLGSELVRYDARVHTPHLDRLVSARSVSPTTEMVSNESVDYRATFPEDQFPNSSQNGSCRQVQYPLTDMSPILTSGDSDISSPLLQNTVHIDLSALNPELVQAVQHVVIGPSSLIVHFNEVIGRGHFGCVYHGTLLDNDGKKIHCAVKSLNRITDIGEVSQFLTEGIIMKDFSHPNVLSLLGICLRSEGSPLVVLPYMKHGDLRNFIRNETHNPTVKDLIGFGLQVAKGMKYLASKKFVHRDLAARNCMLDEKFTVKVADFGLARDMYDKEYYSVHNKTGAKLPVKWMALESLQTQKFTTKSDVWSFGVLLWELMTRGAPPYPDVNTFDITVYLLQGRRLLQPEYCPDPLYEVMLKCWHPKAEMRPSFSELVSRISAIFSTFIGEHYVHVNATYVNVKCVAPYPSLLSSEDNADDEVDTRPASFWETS
Sequence of KDR kinase (Seq ID No. 3) (P35968 with tags, fused parts or gaps DEL940-989/E990V): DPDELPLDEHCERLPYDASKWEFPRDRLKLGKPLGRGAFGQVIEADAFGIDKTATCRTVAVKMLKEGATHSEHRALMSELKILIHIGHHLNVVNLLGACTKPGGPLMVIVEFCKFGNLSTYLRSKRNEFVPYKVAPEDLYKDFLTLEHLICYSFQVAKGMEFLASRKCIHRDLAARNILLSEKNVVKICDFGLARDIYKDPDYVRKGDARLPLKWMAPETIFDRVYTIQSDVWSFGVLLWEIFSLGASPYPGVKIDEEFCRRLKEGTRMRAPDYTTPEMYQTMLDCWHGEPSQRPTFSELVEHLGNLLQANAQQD
T3 sequence (P16234 24-1089): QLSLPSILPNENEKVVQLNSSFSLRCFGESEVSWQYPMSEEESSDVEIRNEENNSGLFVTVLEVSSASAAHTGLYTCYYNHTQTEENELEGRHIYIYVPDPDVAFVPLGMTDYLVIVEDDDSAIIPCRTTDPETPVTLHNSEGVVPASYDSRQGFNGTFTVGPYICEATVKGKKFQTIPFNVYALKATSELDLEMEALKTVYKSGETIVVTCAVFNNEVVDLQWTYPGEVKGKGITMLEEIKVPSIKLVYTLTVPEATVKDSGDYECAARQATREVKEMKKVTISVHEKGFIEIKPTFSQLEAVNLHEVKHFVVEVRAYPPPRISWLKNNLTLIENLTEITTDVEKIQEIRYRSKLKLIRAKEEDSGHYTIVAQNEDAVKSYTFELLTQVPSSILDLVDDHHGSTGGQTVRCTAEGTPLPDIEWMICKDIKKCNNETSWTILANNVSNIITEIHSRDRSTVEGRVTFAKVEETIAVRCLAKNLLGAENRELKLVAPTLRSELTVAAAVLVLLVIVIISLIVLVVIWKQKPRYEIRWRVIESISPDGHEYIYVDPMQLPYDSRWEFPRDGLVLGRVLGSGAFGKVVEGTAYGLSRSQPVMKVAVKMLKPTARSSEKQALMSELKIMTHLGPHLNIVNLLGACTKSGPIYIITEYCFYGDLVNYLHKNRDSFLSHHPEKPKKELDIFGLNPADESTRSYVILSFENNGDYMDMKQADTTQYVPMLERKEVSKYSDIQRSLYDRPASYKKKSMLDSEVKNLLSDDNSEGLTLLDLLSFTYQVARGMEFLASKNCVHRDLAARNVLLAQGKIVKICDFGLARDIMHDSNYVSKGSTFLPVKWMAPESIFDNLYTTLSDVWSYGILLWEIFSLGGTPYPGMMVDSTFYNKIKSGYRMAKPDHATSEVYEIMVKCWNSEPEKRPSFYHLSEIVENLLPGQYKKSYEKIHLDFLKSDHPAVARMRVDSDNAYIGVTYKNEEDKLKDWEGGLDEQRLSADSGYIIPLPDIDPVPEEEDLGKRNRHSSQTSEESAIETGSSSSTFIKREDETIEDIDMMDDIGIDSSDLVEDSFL
T5 sequence (P10721 with tags, fused parts or gaps): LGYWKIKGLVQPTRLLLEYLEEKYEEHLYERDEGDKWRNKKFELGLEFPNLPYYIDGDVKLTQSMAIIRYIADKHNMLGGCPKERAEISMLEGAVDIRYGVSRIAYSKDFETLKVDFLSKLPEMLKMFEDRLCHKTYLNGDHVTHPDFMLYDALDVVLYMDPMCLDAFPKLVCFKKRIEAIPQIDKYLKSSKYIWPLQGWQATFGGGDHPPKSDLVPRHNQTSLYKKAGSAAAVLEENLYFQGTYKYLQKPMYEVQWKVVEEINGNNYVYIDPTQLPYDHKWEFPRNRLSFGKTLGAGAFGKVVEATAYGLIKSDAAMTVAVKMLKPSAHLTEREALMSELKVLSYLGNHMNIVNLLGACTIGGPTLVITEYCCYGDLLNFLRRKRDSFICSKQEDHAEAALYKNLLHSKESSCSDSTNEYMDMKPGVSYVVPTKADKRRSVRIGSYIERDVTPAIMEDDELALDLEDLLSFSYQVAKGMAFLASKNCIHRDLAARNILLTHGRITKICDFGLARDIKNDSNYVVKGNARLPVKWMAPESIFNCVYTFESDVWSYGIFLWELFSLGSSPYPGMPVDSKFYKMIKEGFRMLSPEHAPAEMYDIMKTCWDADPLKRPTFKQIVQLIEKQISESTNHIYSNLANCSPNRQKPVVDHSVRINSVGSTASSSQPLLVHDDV
T6 sequence (P10721 26-976): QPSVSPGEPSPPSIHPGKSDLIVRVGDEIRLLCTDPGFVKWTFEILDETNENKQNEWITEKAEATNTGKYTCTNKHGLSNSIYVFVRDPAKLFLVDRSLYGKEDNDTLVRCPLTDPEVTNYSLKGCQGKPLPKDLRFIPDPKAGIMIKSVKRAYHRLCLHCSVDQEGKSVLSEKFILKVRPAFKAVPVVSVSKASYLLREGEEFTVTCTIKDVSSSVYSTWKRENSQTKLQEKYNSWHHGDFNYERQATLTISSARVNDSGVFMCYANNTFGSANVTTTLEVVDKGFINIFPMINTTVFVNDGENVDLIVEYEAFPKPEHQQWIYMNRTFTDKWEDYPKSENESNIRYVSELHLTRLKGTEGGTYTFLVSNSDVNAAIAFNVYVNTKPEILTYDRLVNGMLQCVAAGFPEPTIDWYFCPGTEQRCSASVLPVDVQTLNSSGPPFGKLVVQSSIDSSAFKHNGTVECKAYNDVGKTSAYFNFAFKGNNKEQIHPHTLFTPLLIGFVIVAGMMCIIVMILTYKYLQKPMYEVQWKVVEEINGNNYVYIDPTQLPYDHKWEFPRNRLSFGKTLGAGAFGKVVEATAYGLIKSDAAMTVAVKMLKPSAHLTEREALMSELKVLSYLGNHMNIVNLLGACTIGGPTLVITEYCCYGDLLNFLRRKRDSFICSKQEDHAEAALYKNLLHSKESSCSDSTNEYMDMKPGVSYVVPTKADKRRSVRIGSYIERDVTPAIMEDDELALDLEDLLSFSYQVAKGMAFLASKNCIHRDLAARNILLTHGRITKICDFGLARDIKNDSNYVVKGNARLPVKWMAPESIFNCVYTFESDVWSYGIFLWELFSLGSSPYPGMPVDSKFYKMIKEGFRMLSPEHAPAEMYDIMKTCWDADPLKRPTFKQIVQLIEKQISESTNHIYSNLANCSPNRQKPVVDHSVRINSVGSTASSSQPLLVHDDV

As for `Cn1cc(-c2cc(Oc3ccc(NC(=O)C4(C(=O)Nc5ccc(F)cc5)CC4)nc3)ccn2)cn1` [Example 41, N-(4-fluorophenyl)-N′-(5-(2-(1-methyl-1,4-pyrazol-4-yl)pyridin-4-yloxy)pyridin-2-yl)cyclopropane-1,1-dicarboxamide], the IC50 at PDGFRβ was less than 10000 nM; in the assay with M-NFS-60 cells it was less than 10000 nM; in [1], less than 2000 nM; in assay [2], less than 2000 nM; at PDGFRα kinase it was less than 2000 nM; at FMS kinase, less than 200 nM. The IC50 in assay [3] was less than 2000 nM.
On to `Cn1cc(-c2cc(Oc3cc(F)c(NC(=O)C4(C(=O)Nc5ccccc5)CC4)cc3F)ccn2)cn1` [Example 45, N-(2,5-difluoro-4-(2-(1-methyl-1H-pyrazol-4-yl)pyridin-4-yloxy)phenyl)-N′-phenylcyclopropane-1,1-dicarboxamide], for which the IC50 on PDGFRβ is less than 10000 nM; on Mo-7e pKIT it was less than 200 nM; in assay [1], less than 200 nM; in [2] it was less than 2000 nM; with EBC-1 cells, less than 200 nM; on PDGFRα kinase, less than 10000 nM. Also, the IC50 in assay [3] was less than 200 nM.
`Cn1cc(-c2cc(Oc3cc(F)c(NC(=O)NC(=O)Cc4ccc(F)cc4)cc3F)ccn2)cn1` [Example 42, 1-(2,5-difluoro-4-(2-(1-methyl-1H-pyrazol-4-yl)pyridin-4-yloxy)phenyl)-3-(2-(4-fluorophenyl)acetyl)urea]: the IC50 is less than 10000 nM on PDGFRβ; less than 2000 nM on Mo-7e pKIT; less than 200 nM in assay [1]; less than 10000 nM in assay [2]; less than 200 nM in the assay on EBC-1 cells; less than 200 nM on PDGFRα kinase. Also, the IC50 in assay [3] is less than 200 nM.
